In patent US20210070748A1, “INHIBITORS OF BRUTONS TYROSINE KINASE” (Pharmacyclics LLC, priority 2015, published 2021):
Read-outs that look alike come from different tables or passages of the source.

Assays:
BTK-WT = target: T1, BTK-WT (Homo sapiens, UniProt Q06187); assay: Btk in vitro inhibitory activity (one of Method A TR-FRET, Method B electrophoretic mobility shift, Method C radiometric filter binding); assay type: biochemical; conditions: read-out: IC50 BTK-WT
T1 construct: purified from insect cells as a full-length construct containing an N-terminal 6X-His tag; His6 (N); made in house; host or cells: insect cells (baculovirus Sf21 in Method B)
Description: Btk kinase activity is determined using a time-resolved fluorescence resonance energy transfer (TR-FRET) methodology. Measurements are performed in a reaction volume of 50 μL using 96-well assay plates. […] The reaction is quenched by the addition of 1.2 equivalents of EDTA (relative to divalent cation) in 25 μL of 1× Lance buffer (Perkin-Elmer). […] The TR-FRET signal is measured on a multimode plate reader with an excitation wavelength (λEx) of 330 nm and detection wavelengths (λEm) of 615 and 665 nm. Activity is determined by the ratio of the fluorescence at 665 nm to that at 615 nm. For each compound, enzyme activity is measured at various concentrations of compound. Negative control reactions are performed in the absence of inhibitor in replicates of six, and two no-enzyme controls are used to determine baseline fluorescence levels. Inhibition constants, Ki(app), were obtained using the program BatchKi(Kuzmic et al. (2000), Anal. Biochem. 286:45-50). IC50s are obtained according to the equation:
IC50={Ki(app)/(1+[ATP]/Km^ATP)}+[E]total/2;
Kinase activity is measured in vitro using electrophoretic mobility shift assay. The kinase reactions are assembled in a total volume of 25 μL in 384 well plates. […] The reaction is incubated for one hour and is quenched by the addition of 45 μL of termination buffer (100 mM HEPES, pH7.5, 0.01% Triton X-100, 30 mM EDTA). The terminated reactions are analyzed using 12 channel LabChip® 3000 microfluidic detection instrument (Caliper Life Sciences). […] Change in the relative fluorescence intensity of the substrate and product peaks is the parameter measured, reflecting enzyme activity. In the presence of an inhibitor, the ratio between product and substrate is altered: the signal of the product decreases, while the signal of the substrate increases.
Activity in each sample is determined as the product to sum ratio (PSR): P/(S+P), where P is the peak height of the product peptide and S is the peak height of the substrate peptide. For each compound, enzyme activity is measured at various concentrations (12 concentrations of compound spaced by 3× dilution intervals). Negative control samples (0%-inhibition in the absence of inhibitor) and positive control samples (100%-inhibition, in the presence of 20 mM EDTA) are assembled in replicates of four and are used to calculate %-inhibition values for each inhibitor at each concentration. Percent inhibition (Pinh) is determined using following equation:
Pinh=(PSR0%-PSRinh)/(PSR0%−PSR100%)*100, where PSRinh is the product sum ratio in the presence of inhibitor, PSR0% is the average product sum ration in the absence of inhibitor and PSR100% is the average product sum ratio in 100%-inhibition control samples;
The IC50 values of inhibitors are determined by 4 parameter sigmoidal dose-response model fitting of the inhibition curves (Pinh versus inhibitor concentration) using XLfit 4 software.
Human Btk kinase (Genbank accession # NP_000052) was purified from insect cells as a full-length construct containing an N-terminal 6X-His tag. Btk kinase activity was determined using a radiometric filter binding assay. Measurements are performed in a low μL reaction volume 384-well assay plates. […] IC50 values and curve fits were obtained using Prism (GraphPad Software).

ITK = target: T2, ITK (Homo sapiens, UniProt Q08881); assay: Inhibition of a panel of kinases, in vitro HotSpot kinase assay: ITK; assay type: biochemical; conditions: 1 μM ATP
T2 sequence (Q08881 1-620): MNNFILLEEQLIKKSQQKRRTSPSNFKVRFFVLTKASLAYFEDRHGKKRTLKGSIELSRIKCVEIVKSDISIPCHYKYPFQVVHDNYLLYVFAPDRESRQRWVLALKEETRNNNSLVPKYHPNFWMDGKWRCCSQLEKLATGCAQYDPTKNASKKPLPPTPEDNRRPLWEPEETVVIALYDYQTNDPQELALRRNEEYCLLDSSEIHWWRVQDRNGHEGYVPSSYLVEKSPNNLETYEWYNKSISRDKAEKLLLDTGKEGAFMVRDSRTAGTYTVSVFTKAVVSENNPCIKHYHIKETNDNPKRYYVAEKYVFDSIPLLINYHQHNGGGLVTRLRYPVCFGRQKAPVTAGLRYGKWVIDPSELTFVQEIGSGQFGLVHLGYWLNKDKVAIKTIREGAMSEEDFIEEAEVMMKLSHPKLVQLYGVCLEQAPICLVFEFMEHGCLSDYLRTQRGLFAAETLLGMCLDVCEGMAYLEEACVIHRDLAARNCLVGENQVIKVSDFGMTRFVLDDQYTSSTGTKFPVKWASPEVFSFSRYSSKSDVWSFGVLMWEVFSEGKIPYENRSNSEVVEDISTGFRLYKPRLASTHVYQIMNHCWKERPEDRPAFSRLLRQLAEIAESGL
Description: The degree of inhibition of a panel of kinases is determined using the in vitro HotSpot kinase assay (purified enzymes, ^33P-ATP, an appropriate substrate and 1 μM ATP).

T1 sequence (Q06187 whole entry): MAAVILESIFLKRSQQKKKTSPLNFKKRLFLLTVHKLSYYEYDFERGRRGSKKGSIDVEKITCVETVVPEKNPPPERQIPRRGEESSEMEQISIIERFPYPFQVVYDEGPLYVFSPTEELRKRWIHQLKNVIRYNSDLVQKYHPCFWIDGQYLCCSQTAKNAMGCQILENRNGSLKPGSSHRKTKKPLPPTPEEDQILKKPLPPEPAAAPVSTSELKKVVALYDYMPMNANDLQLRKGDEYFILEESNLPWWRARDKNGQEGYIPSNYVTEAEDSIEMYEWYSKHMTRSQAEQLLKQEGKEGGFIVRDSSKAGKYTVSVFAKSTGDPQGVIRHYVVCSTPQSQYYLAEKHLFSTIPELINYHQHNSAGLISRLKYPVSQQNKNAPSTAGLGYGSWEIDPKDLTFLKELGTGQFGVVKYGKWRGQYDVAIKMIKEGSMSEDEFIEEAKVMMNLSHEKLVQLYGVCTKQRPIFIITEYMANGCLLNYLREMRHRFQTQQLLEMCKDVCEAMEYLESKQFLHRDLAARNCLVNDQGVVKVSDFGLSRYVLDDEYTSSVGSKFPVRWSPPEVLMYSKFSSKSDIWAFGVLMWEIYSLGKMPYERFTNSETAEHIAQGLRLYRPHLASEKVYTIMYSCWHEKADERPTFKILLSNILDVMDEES

SMILES	IC50 (BTK-WT; Table 15, C compounds)	IC50 (ITK; Table 15, C compounds)	IC50 (BTK-WT; Table 13, A compounds)	IC50 (ITK; Table 13, A compounds)
C=CC(=O)N1CCC[C@@H](Nc2nnc(C(N)=O)c(Nc3ccc(C(C)C)cc3)n2)[C@@H]1C (racemic) [Example C-33, 3-((2S,3R)-1-acryloyl-2-methylpiperidin-3-ylamino)-5-(4-isopropylphenylamino)-1,2,4-triazine-6-carboxamide]	≤ 10 nM	10 to 100 nM		
C=CC(=O)N[C@@H]1CCCN(c2nnc(C(N)=O)c(Nc3ccc(C(C)C)cc3)n2)C1 [Example A-94, (R)-3-(3-acrylamido-piperidin-1-yl)-5-(4-isopropylphenylamino)-1,2,4-triazine-6-carboxamide]			10 to 100 nM	100 to 1000 nM
C=CC(=O)N[C@H]1CCCN(c2nnc(C(N)=O)c(Nc3ccc(C(C)C)cc3)n2)C1 [Example A-95, (S)-3-(3-acrylamido-piperidin-1-yl)-5-(4-isopropylphenylamino)-1,2,4-triazine-6-carboxamide]			10 to 100 nM	100 to 1000 nM
C=CC(=O)N1CCC[C@H](Nc2nnc(C(N)=O)c(Nc3ccc(-c4ncco4)cc3)n2)C1 [Example C-34, (S)-3-(1-acryloylpiperidin-3-ylamino)-5-(4-(oxazol-2-yl)phenylamino)-1,2,4-triazine-6-carboxamide]	≤ 10 nM	10 to 100 nM		
C=CC(=O)N1CCCC[C@H](Nc2nnc(C(N)=O)c(Nc3ccc(C(C)C)cc3)n2)C1 [Example C-35, (S)-3-(1-acryloylazepan-3-ylamino)-5-(4-isopropylphenylamino)-1,2,4-triazine-6-carboxamide]	≤ 10 nM	100 to 1000 nM		
C=CC(=O)N1CCC[C@H](Nc2cnc(C(N)=O)c(Nc3ccc(-c4ncccn4)cc3)n2)C1 [Example C-36, (S)-5-(1-acryloylpiperidin-3-ylamino)-3-(4-(pyrimidin-2-yl)phenylamino) pyrazine-2-carboxamide]	≤ 10 nM	100 to 1000 nM		
C=CC(=O)N1CCC[C@H](Nc2cnc(C(N)=O)c(Nc3ccc(C(C)C)cc3)n2)C1 [Example C-37, (S)-5-(1-acryloylpiperidin-3-ylamino)-3-(4-isopropylphenylamino) pyrazine-2-carboxamide]	≤ 10 nM	100 to 1000 nM		
C=CC(=O)N1CCCC[C@@H](Nc2nnc(C(N)=O)c(Nc3ccc(C(C)C)cc3)n2)C1 [Example C-38, (R)-3-(1-acryloylazepan-3-ylamino)-5-(4-isopropylphenylamino)-1,2,4-triazine-6-carboxamide]	≤ 10 nM	≤ 10 nM		
C=CC(=O)N1CCC[C@H](Nc2nnc(C(N)=O)c(Nc3ccc(C(C)(C)C)cc3)n2)C1 [Example C-39, (S)-3-(1-acryloylpiperidin-3-ylamino)-5-(4-tert-butylphenylamino)-1,2,4-triazine-6-carboxamide]	≤ 10 nM	10 to 100 nM		
C=CC(=O)N1CCC[C@H](N(C)c2nnc(C(N)=O)c(Nc3ccc(C(C)C)cc3)n2)C1 [Example C-43, (S)-3-((1-acryloylpiperidin-3-yl)(methyl)amino)-5-(4-isopropylphenylamino)-1,2,4-triazine-6-carboxamide]	≤ 10 nM	10 to 100 nM		
C=CC(=O)N1CCC(C)(c2ccc(Nc3nc(N[C@@H]4CCCN(C(=O)C=C)C4)nnc3C(N)=O)cc2)CC1 [Example C-45, (R)-5-(4-(1-acryloyl-4-methylpiperidin-4-yl)phenylamino)-3-(1-acryloylpiperidin-3-ylamino)-1,2,4-triazine-6-carboxamide]	≤ 10 nM	≤ 10 nM		
CCC(=O)N1CCC[C@@H](Nc2nnc(C(N)=O)c(Nc3ccc(C(C)(C)C)cc3)n2)C1 [Example C-46, (R)-5-(4-tert-butylphenylamino)-3-(1-propionylpiperidin-3-ylamino)-1,2,4-triazine-6-carboxamide]	≤ 10 nM	100 to 1000 nM		
C=CC(=O)N1CCC[C@@H](Nc2nnc(C(N)=O)c(Nc3ccc(C4CC4)cc3)n2)C1 [Example C-47, (R)-3-(1-acryloylpiperidin-3-ylamino)-5-(4-cyclopropylphenyl-amino)-1,2,4-triazine-6-carboxamide]	≤ 10 nM	10 to 100 nM		
C=CC(=O)N1CCC[C@@H](Nc2nnc(C(N)=O)c(Nc3ccc(C4(C#N)CC4)cc3)n2)C1 [Example C-48, (R)-3-(1-acryloylpiperidin-3-ylamino)-5-(4-(1-cyanocyclopropyl)phenylamino)-1,2,4-triazine-6-carboxamide]	≤ 10 nM	≤ 10 nM		
C=CC(=O)N1CCC[C@@H](N(C(=O)C=C)c2nnc(C(N)=O)c(Nc3ccc(C4CC4)cc3)n2)C1 [Example C-49, (R)-3-(N-(1-acryloylpiperidin-3-yl)acrylamido)-5-(4-cyclopropylphenyl-amino)-1,2,4-triazine-6-carboxamide]	≤ 10 nM	1000 to 10000 nM		
C=CC(=O)N1CCC[C@@H](N(C(=O)C=C)c2nnc(C(N)=O)c(Nc3ccc(C4(C#N)CC4)cc3)n2)C1 [Example C-50, (R)-3-(N-(1-acryloylpiperidin-3-yl)acrylamido)-5-(4-(1-cyanocyclopropyl)phenylamino)-1,2,4-triazine-6-carboxamide]	≤ 10 nM	100 to 1000 nM		
C=CC(=O)N1CCC[C@@H](Nc2nnc(C(N)=O)c(Nc3cccc(C)c3)n2)C1 [Example C-55, (R)-3-(1-acryloylpiperidin-3-ylamino)-5-(m-tolylamino)-1,2,4-triazine-6-carboxamide]	≤ 10 nM	10 to 100 nM		
CN(c1cnc(C(N)=O)c(Nc2ccc(C3(C)CCN(C4CC4)CC3)cc2)n1)[C@@H]1CCN(C(=O)C(F)(F)F)C1 [Example C-66, (R)-3-(4-(1-cyclopropyl-4-methylpiperidin-4-yl)phenylamino)-5-(methyl(1-(2,2,2-trifluoroacetyl)pyrrolidin-3-yl)amino)pyrazine-2-carboxamide]	≤ 10 nM	≤ 10 nM		
CN(c1cnc(C(N)=O)c(Nc2ccc(C3(C)CCN(C4CCCC4)CC3)cc2)n1)[C@@H]1CCN(C(=O)C(F)(F)F)C1 [Example C-68, (R)-3-(4-(1-cyclopentyl-4-methylpiperidin-4-yl)phenylamino)-5-(methyl(1-(2,2,2-trifluoroacetyl)pyrrolidin-3-yl)amino)pyrazine-2-carboxamide]	≤ 10 nM	≤ 10 nM		
C=CC(=O)N1CCC[C@@H](Nc2nnc(C(N)=O)c(Nc3ccc(CN[C@@H](C)C(C)(C)C)cc3)n2)C1 [Example C-73, 3-((R)-1-acryloylpiperidin-3-ylamino)-5-(4-(((S)-3,3-dimethylbutan-2-ylamino)methyl)phenyl-amino)-1,2,4-triazine-6-carboxamide]	≤ 10 nM	≤ 10 nM		
C=CC(=O)N1CCC[C@@H](Nc2nnc(C(N)=O)c(Nc3ccc(-c4cnn(C(=O)C=C)c4)cc3)n2)C1 [Example C-74]	≤ 10 nM	10 to 100 nM		
